Measured values from patent US20250092065A1, “2-(INDAZOL-5-YL)-6-(PIPERIDIN-4-YL)-1,7-NAPHTHYRIDINE DERIVATIVES AND RELATED COMPOUNDS AS MODULATORS FOR SPLICING NUCLEIC ACIDS AND FOR THE TREATMENT OF PROLIFERATIVE DISEASES” (REMIX THERAPEUTICS INC., priority 2022, published 2025).
Structures can show the parent of a compound that is named as a salt. Where two headings read alike, the source gives them in different places.

Assays:
Type in all cases: cell-based, human
HTT mRNA = assay: RT-qPCR splicing assay, HTT mRNA canonical (CJ) and alternative (AJ) junction; details: Homo sapiens; for AC50: HTT alternative junction mRNA, read-out: HTT AJ (increase in AJ mRNA, AC50)
Procedure, shortened: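 A673 or K562 cells treated 24 h at 37 °C with 11-point 3-fold dilutions (top final 10 uM, DMSO ≤0.25%). Lysates analysed by one-step RT-qPCR for canonical (CJ) and alternative-exon (AJ) junctions, normalized to GAPDH, GUSB or PPIA. ΔΔCt vs DMSO, RQ = 2^(−ΔΔCt), expressed as percentage response.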

MYB = assay: HiBiT protein abundance assay, MYB (K562 HiBiT knock-in); details: HiBiT knock-in K562 cells, 24 hours, top dose 10 μM
Procedure, shortened: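 K562 HiBiT knock-in, 24 h, 37 °C, top 10 μM final, 3-fold ×10, DMSO ≤0.25%. Lytic HiBiT luminescence; PC = parental K562, NC = DMSO; 4PL IC50.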

Target C = assay: HiBiT protein abundance assay, Target C (K562 HiBiT knock-in); details: HiBiT knock-in K562 cells, 24 hours, top dose 10 μM
Procedure, shortened: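 K562 HiBiT knock-in cells (10000/well) were treated 24 h at 37° C with a 10-point 3-fold dilution series (top 10 μM final, ≤0.25% DMSO). HiBiT luminescence was read after lytic LgBiT detection. Percent response used unmodified K562 and DMSO-treated knock-in controls, and IC50 came from a four-parameter fit at 50% of untreated.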

[1] = HTT canonical junction mRNA, RT-qPCR, read-out: HTT CJ (decrease in CJ mRNA levels, IC50)
[2] = canonical junction qPCR panel, Table 4, read-out: HTT IC50 (decrease in CJ mRNA levels)

| SMILES | IC50 (HTT mRNA; [1]) | IC50 (HTT mRNA; [2]) | IC50 (MYB) | IC50 (Target C) | AC50 (HTT mRNA; RT-qPCR) |
| --- | --- | --- | --- | --- | --- |
| CN[C@H]1CCN(c2cc3c(Cl)cc(-c4cc5cn(C)nc5c(C)c4O)nc3cc2C)C1 [Compound 749, 5-{4-chloro-7-methyl-6-[(3S)-3-(methylamino)pyrrolidin-1-yl]quinolin-2-yl}-2,7-dimethylindazol-6-ol] | > 10000 nM | > 10000 nM | 100 to 1000 nM | > 10000 nM | > 10000 nM |
| C[C@@H]1CN(c2ccc3nc(-c4cc5cn(C)nc5cc4O)ncc3c2)C[C@H](C)N1 [Compound 751, 5-{6-[(3R,5S)-3,5-dimethylpiperazin-1-yl]quinazolin-2-yl}-2-methylindazol-6-ol hydrochloride] | > 10000 nM | > 10000 nM | 100 to 1000 nM | > 10000 nM | > 10000 nM |
| C[C@H]1CN(c2ccc3nc(-c4cc5cn(C)nc5cc4O)ncc3c2)C[C@H](C)N1 [Compound 752, 5-{6-[(3S,5S)-3,5-dimethylpiperazin-1-yl]quinazolin-2-yl}-2-methylindazol-6-ol] | 1000 to 10000 nM | 1000 to 10000 nM | < 100 nM | 100 to 1000 nM | 1000 to 10000 nM |
| C[C@@H]1CN(c2ccc3nc(-c4cc5cn(C)nc5cc4O)ncc3c2)C[C@@H](C)N1 [Compound 753, 5-{6-[(3R,5R)-3,5-dimethylpiperazin-1-yl]quinazolin-2-yl}-2-methylindazol-6-ol] | 1000 to 10000 nM | 1000 to 10000 nM | 100 to 1000 nM | 100 to 1000 nM | 1000 to 10000 nM |

More lines, main results first:

| IC50 (HTT mRNA; [1]) | IC50 (HTT mRNA; [2]) | IC50 (MYB) | IC50 (Target C) | SMILES | AC50 (HTT mRNA; RT-qPCR) |
| --- | --- | --- | --- | --- | --- |
| 100 to 1000 nM | 100 to 1000 nM | 100 to 1000 nM | 100 to 1000 nM | Cn1cc2cc(-c3ncc4cc(N5CCC(N6CCC6)CC5)ccc4n3)c(O)c(F)c2n1 [Compound 750, 5-{6-[4-(azetidin-1-yl)piperidin-1-yl]quinazolin-2-yl}-7-fluoro-2-methylindazol-6-ol] | 100 to 1000 nM |
| 100 to 1000 nM | 100 to 1000 nM | 100 to 1000 nM | 100 to 1000 nM | CCN(CC)C1CCN(c2ccc3nc(-c4cc5cn(C)nc5c(F)c4O)ncc3c2)CC1 [Compound 756, 5-{6-[4-(diethylamino)piperidin-1-yl]quinazolin-2-yl}-7-fluoro-2-methylindazol-6-ol] | 100 to 1000 nM |
